Measured values from the supplement of paper PMC10883282.

Experiments:
Assay in all cases: standardised AUC of viability dose-response curve (72 h) (fraction (0-1)); higher = less growth inhibition (more resistant)
[1] = tested on: KHOS-240S
Summary of the method: (§1)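 In 384-well plates, sarcoma cell lines were exposed for 72 h, in triplicate, to 2.5 µl of a 1:3 compound dilution series whose compound-plate concentrations ran from 10 mM to 0.0002 mM. Four-parameter log-logistic models were fitted per drug and cell line to ATPLite viability, scaled 1 (full) to 0 (none). From these fits, a modified drexplorer computeAUC gave the standardised area under the curve in log-dose space. Here 1 marks no response and 0 full response.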

[2] = tested on: A204
Summary of the method: as §1

[3] = tested on: SK-LMS-1
Summary of the method: as §1

[4] = tested on: SK-ES-1
Summary of the method: as §1

[5] = tested on: SW982
Summary of the method: as §1

[6] = tested on: G401
Summary of the method: as §1

[7] = tested on: HS729
Summary of the method: as §1

[8] = tested on: MES-SA
Summary of the method: as §1

[9] = tested on: SW1353
Summary of the method: as §1

[10] = tested on: SW684
Summary of the method: as §1

[11] = tested on: SW872
Summary of the method: as §1

[12] = tested on: RD-ES
Summary of the method: as §1

[13] = tested on: SYO-1
Summary of the method: as §1

[14] = tested on: VA-ES-BJ
Summary of the method: as §1

[15] = tested on: HT1080
Summary of the method: as §1

[16] = tested on: RD
Summary of the method: as §1

[17] = tested on: KHOS-NP
Summary of the method: as §1

| SMILES | standardised AUC [1] | standardised AUC [2] | standardised AUC [3] | standardised AUC [4] | standardised AUC [5] | standardised AUC [6] | standardised AUC [7] | standardised AUC [8] | standardised AUC [9] | standardised AUC [10] | standardised AUC [11] | standardised AUC [12] | standardised AUC [13] | standardised AUC [14] | standardised AUC [15] | standardised AUC [16] | standardised AUC [17] |
| --- | --- | --- | --- | --- | --- | --- | --- | --- | --- | --- | --- | --- | --- | --- | --- | --- | --- |
| CC(=O)c1c(C)c2cnc(Nc3ccc(N4CCNCC4)cn3)nc2n(C2CCCC2)c1=O [PALBOCICLIB] | 0.863 | 0.806 | 0.967 | 0.721 | 0.789 | 0.903 | 0.949 | 0.808 | 0.922 | 0.928 | 0.887 | 0.792 | 0.772 | 0.78 | 0.96 | 0.946 | 0.96 |
| CN(C)C(=O)c1cc2cnc(Nc3ccc(N4CCNCC4)cn3)nc2n1C1CCCC1 [RIBOCICLIB] | 0.961 | 0.909 | 0.963 | 0.816 | 0.952 | 0.917 | 0.987 | 0.94 | 0.939 | 0.984 | 0.95 | 0.865 | 0.86 | 0.903 | 0.993 | 0.946 | 0.997 |
| O=C(/C=C\n1cnc(-c2cc(C(F)(F)F)cc(C(F)(F)F)c2)n1)NNc1cnccn1 [SELINEXOR] | 0.612 | 0.672 | 0.642 | 0.5 | 0.649 | 0.706 | 0.773 | 0.652 | 0.822 | 0.847 | 0.781 | 0.751 | 0.596 | 0.625 | 0.714 | 0.721 | 0.655 |
| Cc1cc(F)c(C(=O)Nc2cccc(-c3nncn3C(C)C)n2)cc1-n1cnc(C2CC2)c1 [SELONSERTIB] | 0.977 | 0.94 | 0.988 | 0.953 | 1 | 0.969 | 0.992 | 0.959 | 0.999 | 0.981 | 1 | 0.985 | 0.957 | 0.976 | 1 | 0.995 | 0.962 |
| Cn1cnc2c(F)c(Nc3ccc(Br)cc3Cl)c(C(=O)NOCCO)cc21 [SELUMETINIB] | 0.89 | 0.953 | 0.748 | 0.977 | 0.926 | 0.904 | 0.955 | 0.919 | 0.861 | 0.931 | 0.79 | 0.986 | 0.902 | 0.887 | 0.816 | 0.784 | 0.782 |
| CO[C@H]1C[C@@H]2CC[C@@H](C)[C@@](O)(O2)C(=O)C(=O)N2CCCC[C@H]2C(=O)O[C@H]([C@H](C)C[C@@H]2CC[C@@H](OC(=O)C(C)(CO)CO)[C@H](OC)C2)CC(=O)[C@H](C)/C=C(\C)[C@@H](O)[C@@H](OC)C(=O)[C@H](C)C[C@H](C)/C=C/C=C/C=C/1C [TEMSIROLIMUS] | 0.854 | 0.592 | 0.64 | 0.647 | 0.743 | 0.763 | 0.887 | 0.511 | 0.883 | 0.933 | 0.741 | 0.754 | 0.81 | 0.588 | 0.94 | 0.731 | 0.934 |
